Data taken from patent publication US7037905B2, “Pharmaceutical use of boronic acids and esters thereof” (Novo Nordisk A/S, priority 2002, dated 2006).

Each compound was assayed against T1, hormone sensitive lipase (Homo sapiens, UniProt Q05469) (assay: TEST 3190.1 HSL-FL: percent inhibition of hormone sensitive lipase at 10 μM, fluorochrome-labeled triacylglyceride emulsion). Conditions: 10 μM sample concentration; percent activity relative to a non-inhibited sample; 30 min preincubation 25° C., 120 min at 37° C.
T1 sequence (Q05469 1-1076): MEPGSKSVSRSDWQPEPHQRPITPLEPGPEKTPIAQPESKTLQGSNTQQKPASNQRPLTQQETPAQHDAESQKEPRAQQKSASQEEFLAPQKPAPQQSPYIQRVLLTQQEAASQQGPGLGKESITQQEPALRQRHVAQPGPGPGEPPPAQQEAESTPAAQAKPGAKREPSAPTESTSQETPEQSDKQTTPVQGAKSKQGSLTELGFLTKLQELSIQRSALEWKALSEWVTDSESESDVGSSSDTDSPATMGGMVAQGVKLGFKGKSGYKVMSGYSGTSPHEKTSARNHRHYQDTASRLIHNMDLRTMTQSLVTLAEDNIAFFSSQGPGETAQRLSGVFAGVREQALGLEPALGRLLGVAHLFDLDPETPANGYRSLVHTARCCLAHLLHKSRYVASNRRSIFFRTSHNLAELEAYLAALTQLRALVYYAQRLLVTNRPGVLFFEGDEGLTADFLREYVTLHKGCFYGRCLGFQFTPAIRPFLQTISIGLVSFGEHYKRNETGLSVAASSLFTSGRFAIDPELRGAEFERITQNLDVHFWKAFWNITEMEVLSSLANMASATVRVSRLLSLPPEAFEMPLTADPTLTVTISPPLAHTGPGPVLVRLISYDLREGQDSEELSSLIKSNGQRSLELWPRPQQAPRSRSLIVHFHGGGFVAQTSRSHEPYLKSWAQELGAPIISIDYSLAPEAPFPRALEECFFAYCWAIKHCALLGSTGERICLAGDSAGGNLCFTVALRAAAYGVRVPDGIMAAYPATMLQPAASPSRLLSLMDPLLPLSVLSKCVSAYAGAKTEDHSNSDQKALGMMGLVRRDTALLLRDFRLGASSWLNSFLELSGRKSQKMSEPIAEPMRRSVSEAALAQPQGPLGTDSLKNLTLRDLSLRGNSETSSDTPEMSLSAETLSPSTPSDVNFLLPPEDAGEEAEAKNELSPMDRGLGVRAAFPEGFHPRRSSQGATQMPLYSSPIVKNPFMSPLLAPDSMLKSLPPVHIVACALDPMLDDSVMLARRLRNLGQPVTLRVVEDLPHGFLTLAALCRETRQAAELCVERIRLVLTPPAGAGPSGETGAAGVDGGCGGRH
Assay type: biochemical
Description: 3190.1: Assay for determination of percent inhibition of hormone sensitive lipase by compound at 10 μM sample concentration.
A lipid emulsion with fluorochrome-labeled triacylglyceride and phospholipid is used as substrate with a standard concentration of highly purified HSL (12 μg/mL initial concentration corresponding to 600 ng/mL final concentration). BSA is added as product receptor. The transfer of the fluorochrome from the lipid phase to the water (BSA) phase changes the fluorescent properties of the fluorochrome. The changes can be monitored on a fluorimeter with an excitation wavelength of 450 nm and an emission wavelength of 545 nm.
Compound and HSL (2 μL compound, 10 μL enzyme and 70 μL PED-BSA buffer) is pre-incubated for 30 min at 25° C. before addition of substrate (100 μL). Amount of formed product is measured after 120 min incubation at 37° C.
Results are given as percent activity relative to a non-inhibited sample (no compound).

Row | activity at 10 µM [%] | Compound
1 | 42 | CC1(C)COB(c2cc(Cl)cc(Cl)c2)OC1 [Example 21, 2-(3,5-Dichlorophenyl)-5,5-dimethyl-[1,3,2]dioxaborinane]
2 | 31 | CC1(C)COB(c2ccc(F)c(Cl)c2)OC1 [Example 22, 2-(3-Chloro-4-fluorophenyl)-5,5-dimethyl-[1,3,2]dioxaborinane]
3 | 46 | CC1(C)COB(c2cccc(F)c2)OC1 [Example 23, 2-(3-Fluorophenyl)-5,5-dimethyl-[1,3,2]dioxaborinane]
4 | 58 | Cc1csc(B2OCC(C)(C)CO2)c1 [Example 24, 5,5-Dimethyl-2-(4-methylthiophen-2-yl)-[1,3,2]dioxaborinane]
5 | 28 | CC1(C)OB(c2cccc(Br)c2)OC1(C)C [Example 25, 2-(3-Bromophenyl)-4,4,5,5-tetramethyl-[1,3,2]dioxaborolane]
6 | 29 | CC1(C)OB(c2cccc(OC(F)(F)F)c2)OC1(C)C [Example 27, 4,4,5,5-Tetramethyl-2-(3-trifluoromethoxyphenyl)-[1,3,2]dioxaborolane]
7 | 43 | CC1(C)OB(c2cc(Cl)cc(Cl)c2)OC1(C)C [Example 28, 2-(3,5-Dichlorophenyl)-4,4,5,5-tetramethyl-[1,3,2]dioxaborolane]
8 | 36 | CC1(C)OB(c2ccc(F)c(Cl)c2)OC1(C)C [Example 29, 2-(3-Chloro-4-fluorophenyl)-4,4,5,5-tetramethyl-[1,3,2]dioxaborolane]
9 | 40 | CC1(C)OB(c2cccc(Cl)c2)OC1(C)C [Example 30, 2-(3-Chlorophenyl)-4,4,5,5-tetramethyl-[1,3,2]dioxaborolane]
10 | 27 | CC1(C)OB(c2cccc(C(F)(F)F)c2)OC1(C)C [Example 31, 4,4,5,5-Tetramethyl-2-(3-trifluoromethylphenyl)-[1,3,2]dioxaborolane]
11 | 52 | Cc1csc(B2OC(C)(C)C(C)(C)O2)c1 [Example 32, 4,4,5,5-Tetramethyl-2-(4-methylthiophen-2-yl)-[1,3,2]dioxaborolane]
12 | 53 | OB(O)c1ccc(Cl)c(Cl)c1 [Example 74, 3,4-Dichlorophenylboronic acid]
13 | 100 | OB(O)c1ccc2[nH]ccc2c1 [Example 75, 5-INDOLYL BORONIC ACID]
14 | 80 | O=Cc1cccc(B(O)O)c1 [Example 76, 3-Formylphenylboronic acid]
15 | 98 | CN(C)C(=O)c1ccc(B(O)O)cc1 [Example 77, 4-(N,N-DIMETHYLCARBAMOYL)PHENYLBORONIC ACID]
